Measurements as given in the NIST ThermoML archive (doi:10.1021/je400468z).
“And” between values parts separate entries of the source, which are not always exact repeats. Equal entries are not always repeated.

Test: relative permittivity at various frequencies (dimensionless)
Conditions: Liquid, Frequency=0.001 MHz, Coaxial cylinder capacitor

CCCCCCC [heptane]
Conditions	relative permittivity
303.56 K, 320.13 kPa	1.90973
303.56 K, 1121.5 kPa	1.91097
303.56 K, 5049.5 kPa	1.9172
303.56 K, 10111 kPa	1.92498
303.56 K, 20218 kPa	1.93899
303.56 K, 20219 kPa	1.93899
303.56 K, 30315 kPa	1.95162
303.56 K, 30317 kPa	1.95171
303.56 K, 40408 kPa	1.96324
303.56 K, 50515 kPa	1.97403
303.56 K, 60608 kPa	1.98391
333.15 K, 327.25 kPa	1.86971
333.15 K, 1134.1 kPa	1.87125
333.15 K, 5058.1 kPa	1.87892
333.15 K, 5509 kPa	1.87899
333.15 K, 10118 kPa	1.88834
333.15 K, 10122 kPa	1.88832
333.15 K, 20230 kPa	1.90484
333.15 K, 20232 kPa	1.90482
333.15 K, 30327 kPa	1.91942
333.15 K, 30328 kPa	1.91944
333.15 K, 40419 kPa	1.93256
333.15 K, 50511 kPa	1.9444
333.15 K, 60625 kPa	1.95543
363.01 K, 328.75 kPa	1.82615
363.01 K, 1138 kPa	1.82815
363.01 K, 5057.6 kPa	1.83786
363.01 K, 5062.5 kPa	1.83787
363.01 K, 10125 kPa	1.84924
363.01 K, 20232 kPa	1.86884 and 1.86885
363.01 K, 30330 kPa	1.8855
363.01 K, 30332 kPa	1.88575
363.01 K, 40413 kPa	1.90054
363.01 K, 50513 kPa	1.9141
363.01 K, 60612 kPa	1.9264
363.01 K, 60613 kPa	1.92636
